Reference: article PMC10343205, “Multidirectional Effects of Red Clover (Trifolium pratense L.) in Support of Menopause Therapy” (Molecules, 2023)
One block for each compound: values may come before it.

Legend:
[1] = DPPH assay (free radical scavenging); conditions: standard substance
Procedure: In summary, a 96-well plate was used for the assay. Each well contained 25.0 μL of the test sample and 175.0 μL of a DPPH radical solution (3.9 mg/50 mL) in methanol. The control sample consisted of the DPPH radical solution and the solvent used for extraction, while the blank represented the absorbance value obtained from combining 25.0 μL of the extraction solvent with 175.0 μL of the solvent used to dissolve the DPPH radical (methanol). This procedure was repeated six times. The plate was shaken for 5 min at 25 °C and then incubated for 25 min at room temperature. The absorbance was measured at 517 nm using a plate reader (Multiskan GO 1510, Thermo Fisher Scientific, Vantaa, Finland). The free radical scavenging capacity (%) of the test extracts and the standard substance was calculated using the following equation:(1) […] activity%=A0-A1/A0×100% where A0 is the absorbance of the control, and A1 is the absorbance of the tested sample.

[2] = CUPRAC assay (antioxidant activity); conditions: standard substance
Procedure: To create the CUPRAC reagent, a conical flask wrapped in aluminum foil was used. Equal volumes of a 7.5 mM neocuproine solution in 96% ethanol, a 10 mM aqueous copper chloride solution and an ammonium acetate buffer solution (pH = 7) were added to the flask. In the 96-well plate, 50.0 µL of the test sample and 150.0 µL of the CUPRAC reagent solution were combined. The blank consisted of a mixture of the CUPRAC reagent and the solvent used for extraction. The assay was replicated six times. The plate was covered with aluminum foil, shaken for 5 min at 25 °C and then incubated at room temperature for 25 min. The absorbance was measured at 450 nm using a plate reader (Multiskan GO 1510, Thermo Fisher Scientific, Vantaa, Finland). […] This value was determined using a polynomial trend line.

[3] = target: collagenase; assay: Collagenase inhibition assay; type: biochemical; conditions: positive control
Procedure: The collagenase inhibitory activity of each sample was determined in vitro according to Widodo et al. with some modifications. In summary, 15.0 μL of enzyme, 60 μL of tricine buffer (pH 7.5) and 30 μL of extracts (50 mg/mL) were mixed and incubated at 37 °C for 20 min. Next, 20 μL of FALGPA (0.5 mM) was added to the mixture, and the absorbance was immediately measured at 325 nm using the plate reader (Multiskan GO 1510, Thermo Fisher Scientific, Vantaa, Finland). The absorbance was measured again after 20 min of incubation at 37 °C following the addition of the substrate. A control sample containing only the solvent used instead of the extract was performed, and the results were reduced by the value of the blank representing the enzyme-free sample. The positive control was a sample containing a solution of epigallocatechin gallate instead of the extract tested. The collagenase inhibition rate (presented for the final concentration of substance in enzymatic reaction) expressed as a percentage of inhibition was calculated using Formula (2).

[4] = Parallel artificial membrane permeability assay (PAMPA-GIT, PAMPA-BBB, PAMPA-SKIN); type: in vitro ADME; conditions: isoflavones from red clover extracts, donor 12.5 mg/mL, pH 7.4, 4 h at 37 °C, BBB and SKIN membranes; for Papp at 4 h, 12.5 mg/mL: PAMPA, read-out: Apparent permeability coefficient (Papp)
Procedure: Then, 200 μL of the donor solution was added to the donor wells. Subsequently, each filter membrane of the top plate was coated with a suitable lipid solution, i.e., 5 μL BBB, GIT or preincubated with hydration buffer 24 h earlier for SKIN assay (Pion Inc., Billerica, MA, USA), and the acceptor well was filled with 200 μL of acceptor fluid. The acceptor plate and the donor plate were coupled together and incubated for 4 h at 37 °C. After incubation, the plates were separated, and the concentrations of compounds that crossed the membrane were determined using HPLC. To calculate Papp, the following equation was used:(3) Papp=−ln1−CA/Cequilibrium/S×1/VD+1/VA×t where Papp—effective permeability coefficient (cm/s), VD—donor volume, VA—acceptor volume, Cequilibrium—equilibrium concentration, S—membrane area, and t—incubation time (in seconds).
Samples were analyzed in triplicate.

[5] = set-up: method as in PMID 29504397; conditions: rat study; cited from earlier work

- Papp at 4 h, 12.5 mg/mL [4]: > 1 ×10⁻⁶ cm/s
Structure (SMILES): COc1ccc(-c2coc3cc(O)cc(O)c3c2=O)cc1 [biochanin A]

- Papp at 4 h, 12.5 mg/mL [4]: > 1 ×10⁻⁶ cm/s
Structure (SMILES): COc1ccc(-c2coc3cc(O)ccc3c2=O)cc1 [formononetin]
- bioavailability [5]: 21.8%

- Apparent permeability coefficient (Papp) [4]: did not show such permeability
Structure (SMILES): O=c1c(-c2ccc(O)cc2)coc2cc(O)cc(O)c12 [genistein]

Second part, the compound before the results:

Structure (SMILES): O=C1O[C@H]([C@@H](O)CO)C(O)=C1O [Ascorbic acid]
- DPPH IC50 [1]: 68 ± 5 µg/mL
- CUPRAC IC50 [2]: 73 ± 3 µg/mL

Structure (SMILES): O=C(O[C@@H]1Cc2c(O)cc(O)cc2O[C@@H]1c1cc(O)c(O)c(O)c1)c1cc(O)c(O)c(O)c1 [EGCG, epigallocatechin gallate]
- Collagenase inhibition IC50 [3]: IC50 = 0.666 ± 0.007 mg/ml
